{
  "source": "paper PMC4877593",
  "about": "“Design and Synthesis of Potent in Vitro and in Vivo Anticancer Agents Based on 1-(3′,4′,5′-Trimethoxyphenyl)-2-Aryl-1H-Imidazole” (Scientific Reports, 2016)",
  "key": {"RS4;11": {"test_system": "RS4;11", "assay": "In vitro antiproliferative activity (MTT), RS4;11", "type": "cell-based", "details": "Homo sapiens, tumor cell proliferation, 72 h, mean ± SE"}, "HeLa cells": {"test_system": "HeLa cells", "assay": "Western blot analysis of cell cycle, spindle checkpoint and apoptosis proteins", "type": "cell-based, human", "protocol": "HeLa cells were incubated in the presence of 4o and, after different times, were collected, centrifuged, and washed two times with ice cold phosphate buffered saline (PBS). The pellet was then resuspended in lysis buffer. After the cells were lysed on ice for 30 min, lysates were centrifuged at 15000 × g at 4 °C for 10 min. The protein concentration in the supernatant was determined using the BCA protein assay reagents (Pierce, Italy). Equal amounts of protein (10 μg) were resolved using sodium dodecyl sulfate-polyacrylamide gel electrophoresis (SDS-PAGE) (Criterion Precast, BioRad, Italy) and transferred to a PVDF Hybond-P membrane (GE Healthcare). Membranes were blocked with a bovine serum albumin solution (5% in Tween PBS 1X), the membranes being gently rotated overnight at 4 °C. Membranes were then incubated with primary antibodies against Bcl-2, PARP, cdc25c, CDC20, ROCK1, MAD2, p-H2AX^Ser139, cyclin B, p-cdc2^Tyr15, […] (all from Cell Signaling), caspase-3 (Alexis), or β-actin (Sigma-Aldrich) for 2 h at room temperature. Membranes were next incubated with peroxidase labeled secondary antibodies for 60 min. All membranes were visualized using ECL Select (GE Healthcare), and images were acquired using an Uvitec-Alliance imaging system (Uvitec, Cambridge, UK). To ensure equal protein loading, each membrane was stripped and reprobed with anti-β-actin antibody."}, "HeLa [1]": {"test_system": "HeLa", "assay": "Mitochondrial membrane potential (JC-1), HeLa", "type": "cell-based, human", "details": "HeLa, 50, 100 and 250 nM; time- and concentration-dependent", "protocol": "Mitochondria play an essential role in the propagation of apoptosis. It is well established that, at an early stage, apoptotic stimuli alter the mitochondrial transmembrane potential (Δψmt). Δψmt was monitored by the fluorescence of the dye JC-1. […] This occurred in a time- and concentration-dependent fashion, and, in both cell lines, a significant increase was observed after a 6 h treatment. The disruption of Δψmt is associated with the appearance of annexin-V positivity in the treated cells when they are in an early apoptotic stage. […] Cells were treated with the indicated concentration of compound for 24 or 48 h and then stained with the fluorescent probe JC-1 for analysis of mitochondrial potential or H2-DCFDA for the evaluation of ROS levels. Cells were then analyzed by flow cytometry as described in the experimental section."}, "MCF-7": {"test_system": "MCF-7", "assay": "In vitro antiproliferative activity (MTT), MCF-7", "type": "cell-based", "details": "Homo sapiens, MCF7, tumor cell proliferation, 72 h, mean ± SE", "protocol": "(§1) Human T-cell leukemia (CCRF-CEM and Jurkat) and human B-cell leukemia (SEM) cells were grown in RPMI-1640 medium (Gibco, Milano, Italy). Breast adenocarcinoma (MCF7), human cervix carcinoma (HeLa), and human colon adenocarcinoma (HT-29) cells were grown in DMEM medium (Gibco, Milano, Italy), all supplemented with 115 units/mL penicillin G (Gibco, Milano, Italy), 115 μg/mL streptomycin (Invitrogen, Milano, Italy), and 10% fetal bovine serum (Invitrogen, Milano, Italy). Stock solutions (10 mM) of the different compounds were obtained by dissolving them in dimethyl sulfoxide (DMSO). Individual wells of a 96-well tissue culture microtiter plate were inoculated with 100 μL of complete medium containing 8 × 10^3 cells. The plates were incubated at 37 °C in a humidified 5% CO2 incubator for 18 h prior to the experiments. After medium removal, 100 μL of fresh medium containing the test compound at different concentrations was added to each well in triplicate and incubated at 37 °C for 72 h. The percentage of DMSO in the medium never exceeded 0.25%. This was also the maximum DMSO concentration in all cell-based assays described below. […] Different concentrations of the test compounds were added, and viability was determined 72 h later by the MTT test. For cytotoxicity evaluations in resting PBL cultures, non-adherent cells were resuspended (5 × 10^5 cells/mL) and treated for 72 h with the test compounds, as described above."}, "Jurkat cells": {"test_system": "Jurkat cells", "assay": "Cell cycle distribution by flow cytometry (PI), Jurkat", "type": "cell-based, human", "details": "24 h treatment", "protocol": "The effects of a 24 h treatment with different concentrations of 4o on cell cycle progression in Jurkat, and HeLa cells were determined by flow cytometry, following propidium iodide (PI) staining of the cells (Fig. 4, Panels A,B). […] In the HeLa cells, the G2/M block was accompanied by a significant reduction of both G1 and S phase cells. In order to determine whether 4o was able to block cells at the mitotic phase (M), cells were stained with an immunofluorescent antibody to p-histone H3, a well known mitotic marker, as well as PI, and analyzed by flow cytometry. As shown in Fig. 4 (Panel C), in which representative histograms are presented, Hela cells arrested in M phase by treatment with 4o are readily distinguished from G2 cells by the higher level of p-histone H3. In particular, treatment with 4o induced an increase in the percentage of mitotic cells from the 2% observed in untreated cells to about 30% with both 50 and 100 nM 4o at 24 h (Fig. 4, Panel D).\n5 × 10^5 HeLa or Jurkat cells were treated with different concentrations of the test compounds for 24 h. After the incubation period, the cells were collected, centrifuged, and fixed with ice-cold ethanol (70%). […] Samples were analyzed on a Cytomic FC500 flow cytometer (Beckman Coulter). DNA histograms were analyzed using MultiCycle for Windows (Phoenix Flow Systems)."}, "[2]": {"test_system": "panel of seven human tumor cell lines", "assay": "Antiproliferative activity across the panel of seven human tumor cell lines", "type": "cell-based", "protocol": "as §1"}, "Jurkat": {"test_system": "Jurkat", "assay": "ROS production (H2-DCFDA), Jurkat", "type": "cell-based, human", "details": "in comparison with control cells", "protocol": "Figure 7 Assessment of mitochondrial membrane potential (Δψmt) and production of ROS after treatment of HeLa (Panels A,B) or Jurkat (Panels C,D) cells with compound 4o. Cells were treated with the indicated concentration of compound for 24 or 48 h and then stained with the fluorescent probe JC-1 for analysis of mitochondrial potential or H2-DCFDA for the evaluation of ROS levels. Cells were then analyzed by flow cytometry as described in the experimental section.\nIt is also well known that dissipation of mitochondrial potential is associated with mitochondrial production of ROS[38]. Superoxide anion is produced by mitochondria due to a shift from the normal 4-electron reduction of O2 to a 1-electron reduction when cytochrome c is released from mitochondria upon apoptosis. Therefore, we investigated whether ROS production increased after treatment with compound 4o. We utilized the dye 2,7-dichlorodihydrofluorescein diacetate (H2-DCFDA), which is oxidized to the fluorescent compound dichlorofluorescein (DCF) upon ROS induction."}, "HeLa [3]": {"test_system": "HeLa", "assay": "In vitro antiproliferative activity (MTT), HeLa", "type": "cell-based", "details": "Homo sapiens, tumor cell proliferation, 72 h, mean ± SE", "protocol": "as §1"}, "[4]": {"details": "HeLa, 24 h, all concentrations examined"}},
  "note": "Read-outs that look alike come from different tables or passages of the source.",
  "data": [
    {"smiles": "CCOc1ccc(-c2nccn2-c2cc(OC)c(OC)c(OC)c2)cc1Cl", "note": "[Compound 4o, 2-(3′-Chloro-4′-ethoxyphenyl)-1-(3′,4′,5′-trimethoxyphenyl)-1H-imidazole]", "values": [
      {"measurement": "IC50", "setting": "RS4;11", "value": "1.2 ± 0.7", "unit": "nM"},
      {"measurement": "phosphorylation of γH2A.X (Ser139)", "setting": "HeLa cells; HeLa", "value": "remarkable increase"},
      {"measurement": "cyclin B1 expression", "setting": "HeLa cells; HeLa, 50 nM, 24 h", "value": "marked increase"},
      {"measurement": "MAD2 expression", "setting": "HeLa cells; HeLa, 24 and 48 h", "value": "substantially decreased"},
      {"measurement": "expression of phosphorylated cdc2", "setting": "HeLa cells; HeLa, 24 and 48 h", "value": "strongly decreased"},
      {"measurement": "PARP", "setting": "HeLa cells; HeLa, 50, 100 and 250 nM, 24 and 48 h", "value": "cleavage of PARP"},
      {"measurement": "caspase-3", "setting": "HeLa cells; HeLa, 50, 100 and 250 nM, in particular after 48 h", "value": "activation of the effector caspase-3"},
      {"measurement": "level of cdc20", "setting": "HeLa cells; HeLa, 24 h", "value": "remained unaffected"},
      {"measurement": "total cdc25c expression", "setting": "HeLa cells; HeLa, 24 h", "value": "strongly reduced"},
      {"measurement": "Bcl-2 expression", "setting": "HeLa cells; [4]", "value": "dramatic decrease"},
      {"measurement": "Mcl-1 expression", "setting": "HeLa cells; [4]", "value": "dramatic decrease"},
      {"measurement": "phosphorylation of PLK1", "setting": "HeLa cells; HeLa, 24 h, effect disappeared at 48 h", "value": "marked increase"},
      {"measurement": "ROCK1 cleavage", "setting": "HeLa cells; HeLa, 48 h", "value": "cleaved bands of ROCK1 appeared"},
      {"measurement": "percentage of cells with low Δψmt (JC-1)", "setting": "HeLa [1]", "value": "remarkable increase"},
      {"measurement": "IC50", "setting": "MCF-7", "value": "0.7 ± 0.06", "unit": "nM"},
      {"measurement": "lowest concentration with a rise in G2/M cells", "setting": "Jurkat cells", "value": 25, "unit": "nM"},
      {"measurement": "IC50", "setting": "[2]; average over the seven cell lines, read-out: average IC50 values", "value": 1.3, "unit": "nM"},
      {"measurement": "IC50", "setting": "[2]; range over seven cancer cell lines, read-out: IC50 values in the seven cell lines (range)", "value": "0.4 to 3.8", "unit": "nM"},
      {"measurement": "ROS production (H2-DCFDA)", "setting": "Jurkat", "value": "induced the production of large amounts of ROS"},
      {"measurement": "IC50", "setting": "HeLa [3]", "value": "3.8 ± 0.7", "unit": "nM"}
    ]}
  ]
}
